Tests used:
Assay type in all cases: biochemical
JNK1 = JNK1 (Homo sapiens, UniProt P45983); assay: In vitro JNK1 inhibition (Table 1)
Description: (§1) In vitro assays for the determination of JNK activities are known in the art and exemplary assay formats are described herein.
(§2) IC50 values in Table 1 were determined using the procedures as described in U.S. Pat. No. 8,450,353.

JNK2 = JNK2 (Homo sapiens, UniProt P45984); assay: In vitro JNK2 inhibition (Table 1)
Description: as §1, §2

JNK3 = JNK3 (Homo sapiens, UniProt P53779); assay: In vitro JNK3 inhibition (Table 1)
Description: as §1, §2

Chain of JNK2 (P45984 whole entry, species assumed): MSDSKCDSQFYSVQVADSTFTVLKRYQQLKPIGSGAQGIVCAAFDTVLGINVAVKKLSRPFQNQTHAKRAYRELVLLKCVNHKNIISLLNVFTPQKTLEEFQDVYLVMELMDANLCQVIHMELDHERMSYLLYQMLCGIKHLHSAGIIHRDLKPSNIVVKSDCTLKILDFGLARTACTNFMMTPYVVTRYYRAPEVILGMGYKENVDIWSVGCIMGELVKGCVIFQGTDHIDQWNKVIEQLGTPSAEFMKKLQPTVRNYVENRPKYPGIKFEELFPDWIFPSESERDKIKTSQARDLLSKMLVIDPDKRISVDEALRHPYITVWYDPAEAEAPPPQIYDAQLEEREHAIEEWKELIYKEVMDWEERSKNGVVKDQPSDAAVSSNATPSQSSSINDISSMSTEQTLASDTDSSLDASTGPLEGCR
Chain of JNK1 (P45983 whole entry, species assumed): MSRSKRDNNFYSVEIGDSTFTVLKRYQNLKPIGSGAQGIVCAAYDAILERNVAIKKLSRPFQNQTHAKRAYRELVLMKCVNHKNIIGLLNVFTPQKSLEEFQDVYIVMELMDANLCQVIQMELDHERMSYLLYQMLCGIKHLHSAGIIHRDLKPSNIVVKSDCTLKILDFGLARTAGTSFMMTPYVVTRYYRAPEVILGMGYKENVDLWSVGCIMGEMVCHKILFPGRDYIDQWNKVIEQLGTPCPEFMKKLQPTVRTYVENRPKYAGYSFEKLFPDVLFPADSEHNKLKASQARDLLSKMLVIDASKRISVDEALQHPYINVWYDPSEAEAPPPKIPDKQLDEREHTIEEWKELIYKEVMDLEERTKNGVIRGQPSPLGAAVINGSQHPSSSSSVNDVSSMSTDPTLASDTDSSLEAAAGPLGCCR
Chain of JNK3 (P53779 whole entry, species assumed): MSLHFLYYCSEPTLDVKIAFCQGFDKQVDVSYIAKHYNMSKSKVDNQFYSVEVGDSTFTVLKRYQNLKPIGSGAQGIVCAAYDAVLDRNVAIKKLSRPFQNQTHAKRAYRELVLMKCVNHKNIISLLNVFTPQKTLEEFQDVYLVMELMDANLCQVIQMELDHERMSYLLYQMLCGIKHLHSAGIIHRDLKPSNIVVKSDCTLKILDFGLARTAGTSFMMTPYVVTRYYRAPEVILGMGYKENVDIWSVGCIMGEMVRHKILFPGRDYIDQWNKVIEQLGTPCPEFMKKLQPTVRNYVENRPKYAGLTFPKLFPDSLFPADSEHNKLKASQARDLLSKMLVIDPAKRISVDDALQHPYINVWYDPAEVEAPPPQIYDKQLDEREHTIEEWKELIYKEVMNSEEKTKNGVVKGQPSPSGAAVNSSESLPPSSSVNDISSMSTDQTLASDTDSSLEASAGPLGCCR

| SMILES | IC50 (JNK1) [nM] | IC50 (JNK2) [nM] | IC50 (JNK3) [nM] |
| --- | --- | --- | --- |
| O=C(Cn1c(=O)ccn2nccc12)Nc1scc(Cl)c1-c1ncn[nH]1 [N-(4-chloro-3-(1H-1,2,4-triazol-5-yl)thiophen-2-yl)-2-(5-oxopyrazolo[1,5-a]pyrimidin-4(5H)-yl)acetamide] | < 100 | < 100 | < 100 |
| O=C(Cc1cccc2cnccc12)Nc1scc(Cl)c1-c1ncn[nH]1 [N-(4-chloro-3-(1H-1,2,4-triazol-5-yl)thiophen-2-yl)-2-(isoquinolin-5-yl)acetamide] | < 100 | < 100 | < 100 |
| Cc1n[nH]c(-c2c(Cl)csc2NC(=O)CN2C(=O)CCc3ncccc32)n1 [N-(4-chloro-3-(3-methyl-1H-1,2,4-triazol-5-yl)thiophen-2-yl)-2-(2-oxo-3,4-dihydro-1,5-naphthyridin-1(2H)-yl)acetamide] | < 100 | < 100 | < 100 |
| O=C(CN1C(=O)CCc2ncccc21)Nc1scc(Cl)c1-c1nccs1 [N-(4-chloro-3-(thiazol-2-yl)thiophen-2-yl)-2-(2-oxo-3,4-dihydro-1,5-naphthyridin-1(2H)-yl)acetamide] | < 100 | < 100 | < 100 |
| Cn1cnc(-c2c(C#N)csc2NC(=O)CN2C(=O)CCc3ncccc32)n1 [N-(4-cyano-3-(1-methyl-1H-1,2,4-triazol-3-yl)thiophen-2-yl)-2-(2-oxo-3,4-dihydro-1,5-naphthyridin-1(2H)-yl)acetamide] | < 100 | < 100 | < 100 |
| Cn1cnc(-c2c(C#N)csc2NC(=O)Cc2cccc3ncccc23)n1 [N-(4-cyano-3-(1-methyl-1H-1,2,4-triazol-3-yl)thiophen-2-yl)-2-(quinolin-5-yl)acetamide] | < 100 | < 100 | < 100 |
| N#Cc1csc(NC(=O)Cn2c(=O)ccc3cc(C(F)(F)F)ccc32)c1-n1ccnn1 [N-(4-cyano-3-(1H-1,2,3-triazol-1-yl)thiophen-2-yl)-2-(2-oxo-6-triazol-1-yl)-4-cyanothiophen-2-yl)-2-(2-oxo-6-(trifluoromethyl)quinolin-1(2H)-yl)acetamide] | 100 to 10000 | 100 to 10000 | 100 to 10000 |
| N#Cc1csc(NC(=O)CN2C(=O)CCc3ncccc32)c1-c1nc[nH]n1 [N-(4-cyano-3-(1H-1,2,4-triazol-3-yl)thiophen-2-yl)-2-(2-oxo-3,4-dihydro-1,5-naphthyridin-1(2H)-yl)acetamide] | < 100 | < 100 | < 100 |
| N#Cc1csc(NC(=O)CN2C(=O)CCc3ccccc32)c1-c1ncn[nH]1 [N-(4-cyano-3-(1H-1,2,4-triazol-5-yl)thiophen-2-yl)-2-(2-oxo-3,4-dihydroquinolin-1(2H)-yl)acetamide] | < 100 | < 100 | < 100 |
| N#Cc1csc(NC(=O)Cc2cccc3cnccc23)c1-c1ncn[nH]1 [N-(4-cyano-3-(1H-1,2,4-triazol-5-yl)thiophen-2-yl)-2-(isoquinolin-5-yl)acetamide] | < 100 | < 100 | < 100 |
| N#Cc1csc(NC(=O)Cn2c(=O)ccc3cc(C(F)(F)F)ccc32)c1-n1nccn1 [N-(4-cyano-3-(2H-1,2,3-triazol-2-yl)thiophen-2-yl)-2-(2-oxo-6-(trifluoromethyl)quinolin-1(2H)-yl)acetamide] | < 100 | < 100 | < 100 |
| N#Cc1csc(NC(=O)Cc2cccc3ncccc23)c1-c1nnc[nH]1 [N-(4-cyano-3-(4H-1,2,4-triazol-3-yl)thiophen-2-yl)-2-(quinolin-5-yl)acetamide] | < 100 | < 100 | < 100 |
| N#Cc1csc(NC(=O)Cn2c(=O)ccc3cc(C(F)(F)F)ccc32)c1-c1ncco1 [N-(4-cyano-3-(oxazol-2-yl)thiophen-2-yl)-2-(2-oxo-6-(trifluoromethyl)quinolin-1(2H)-yl)acetamide] | < 100 | < 100 | < 100 |

Reference: US20190231751A1, “TREATMENT OF FIBROTIC DISORDERS WITH JUN N-TERMINAL KINASE INHIBITORS” (Imago Pharmaceuticals, Inc., priority 2016, published 2019)
